Data taken from PMC10997755, “Discovery of a small-molecule inhibitor that traps Polθ on DNA and synergizes with PARP inhibitors” (Nature Communications, 2024).
Where “and” joins values, the source holds several entries; their conditions need not be identical. Equal values may be shown once.

Columns and labels:
Assay in all cases: Clonogenic assay
CAPAN-1 cells = format: cell-based; conditions: for percent suvival: Capan-1 cells
In short: (§1)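 Cells seeded at low density (300–1000 per well, by plate size and genotype), medium changed every 2 days, colonies grown 10–12 days. Fixed in water:ethanol:acetic acid, stained with 0.5% crystal violet, then counted; IC50 from ≥3 independent experiments, mean ± SEM.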

MDA-MB-231 cells = format: cell-based; conditions: for percent suvival: Fig. 2f
In short: as §1

[1] = test system: PE01 ovarian cancer cells; format: cell-based; conditions: clonogenic survival
In short: as §1

EUFA1341 PALB2 mut cells = format: cell-based
In short: (§2)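 Colony formation by BRCA-deficient, PALB2-mutant and wild-type cells (300–1000 cells/well) and MEFs (300 cells/well) over 10–12 days, medium changed every 2 days. Colonies fixed, stained with 0.5% crystal violet and counted; IC50 from 3 or more independent experiments.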

HCT116 Parental cells = format: cell-based; conditions: for Average number of colonies counted / Normalized colonies (% normalized to control): per experiment
In short: as §2

[2] = test system: PALB2 complemented EUFA1341 cells; format: cell-based; conditions: for Average (raw signal of wells) / Normalized (0 micro M = 100) / average - blank: per experiment
In short: as §2

VC8 cells = format: cell-based, Chinese hamster; conditions: for percent suvival: VC8 cells
Procedure: Cells were plated on six or twelve or twenty-four well plates. In six well plate, 1000 cells/ well of BRCA2 -/-, BRCA1 -/-, PALB2 mut and 500 cells/ well of wildtype pair was plated; In twelve well plate, 600 cells/ well of BRCA2 -/-, BRCA1 -/-, PALB2 mut and 400 cells/ well of wildtype pair was plated; In twenty-four well plate, 500 cells/ well of BRCA2 -/-, BRCA1 -/-, PALB2 mut and 300 cells/ well of wildtype pair was plated. For MEFs, 300 cells per well in six-well plate were seeded. The medium was replaced every 2 days until the colonies were ready for staining in 10–12 days. For staining: Medium was removed from plates, and cells were rinsed with PBS. Fixation was carried out with—Water: Ethanol: Acetic acid (5:4:1) for 30 min followed by staining of colonies with 0.5% crystal violet in Water: Ethanol (3:2) for 2 h at room temperature. The plates were rinsed with water and left for drying overnight at room temperature. Colonies were then counted and IC50 was calculated using results from 3 or more independent experiments. Response curves are shown as mean colony formation +/- S.E.M.
Data are expressed as mean ± SEM from at least 3 independent experiments with triplicates for each condition unless stated otherwise. When conducting comparison between two groups, two-tailed unpaired t-test was used. Significance was assumed at p < 0.05. Asterisks in the figures indicate significance, ^∗p < 0.05, ^∗∗p < 0.01, ^∗∗∗p < 0.001. Combenefit® software version 2.021 was used to perform synergy analyses for drug combinations between RTx-161 and PARPi. GraphPad Prism 9 software was used to calculate IC50.

## CN(C(=O)Oc1c(N2CCN(CCO)C2=O)cc(C(F)(F)F)cc1C(F)(F)F)c1ccc(F)cc1 [RTx-161]
CAPAN-1 cells; RTX-161 2 micro M + ola 0.041 micro M, experiment block 1 (c0-c9)
  percent suvival: 16.0976%
CAPAN-1 cells; RTX-161 2 micro M + ola 0.041 micro M, experiment block 2 (c10-c19)
  percent suvival: 65.2438%
CAPAN-1 cells; RTX-161 2 micro M + ola 0.041 micro M, experiment block 3 (c20-c29)
  percent suvival: 82.5985%
CAPAN-1 cells; RTX-161 2 micro M + ola 0.123 micro M, experiment block 1 (c0-c9)
  percent suvival: 6.496%
CAPAN-1 cells; RTX-161 2 micro M + ola 0.123 micro M, experiment block 2 (c10-c19)
  percent suvival: 35.6906%
CAPAN-1 cells; RTX-161 2 micro M + ola 0.123 micro M, experiment block 3 (c20-c29)
  percent suvival: 71.0728%
CAPAN-1 cells; RTX-161 2 micro M + ola 0.37 micro M, experiment block 1 (c0-c9)
  percent suvival: 4.656%
CAPAN-1 cells; RTX-161 2 micro M + ola 0.37 micro M, experiment block 2 (c10-c19)
  percent suvival: 25.2846%
CAPAN-1 cells; RTX-161 2 micro M + ola 0.37 micro M, experiment block 3 (c20-c29)
  percent suvival: 54.8012%
CAPAN-1 cells; RTX-161 2 micro M + ola 1.11 micro M, experiment block 1 (c0-c9)
  percent suvival: 3.463%
CAPAN-1 cells; RTX-161 2 micro M + ola 1.11 micro M, experiment block 2 (c10-c19)
  percent suvival: 19.041%
CAPAN-1 cells; RTX-161 2 micro M + ola 1.11 micro M, experiment block 3 (c20-c29)
  percent suvival: 23.1621%
CAPAN-1 cells; RTX-161 2 micro M, ola 0.00 micro M, experiment block 1 (c0-c9)
  percent suvival: 102.855%
CAPAN-1 cells; RTX-161 2 micro M, ola 0.00 micro M, experiment block 2 (c10-c19)
  percent suvival: 79.1879%
CAPAN-1 cells; RTX-161 2 micro M, ola 0.00 micro M, experiment block 3 (c20-c29)
  percent suvival: 91.4122%
CAPAN-1 cells; RTX-161 6 micro M + ola 0.041 micro M, experiment block 1 (c0-c9)
  percent suvival: 15.5586%
CAPAN-1 cells; RTX-161 6 micro M + ola 0.041 micro M, experiment block 2 (c10-c19)
  percent suvival: 45.4723%
CAPAN-1 cells; RTX-161 6 micro M + ola 0.041 micro M, experiment block 3 (c20-c29)
  percent suvival: 68.5869%
CAPAN-1 cells; RTX-161 6 micro M + ola 0.123 micro M, experiment block 1 (c0-c9)
  percent suvival: 6.432%
CAPAN-1 cells; RTX-161 6 micro M + ola 0.123 micro M, experiment block 2 (c10-c19)
  percent suvival: 32.777%
CAPAN-1 cells; RTX-161 6 micro M + ola 0.123 micro M, experiment block 3 (c20-c29)
  percent suvival: 59.0951%
CAPAN-1 cells; RTX-161 6 micro M + ola 0.37 micro M, experiment block 1 (c0-c9)
  percent suvival: 6.745%
CAPAN-1 cells; RTX-161 6 micro M + ola 0.37 micro M, experiment block 2 (c10-c19)
  percent suvival: 21.1222%
CAPAN-1 cells; RTX-161 6 micro M + ola 0.37 micro M, experiment block 3 (c20-c29)
  percent suvival: 41.2416%
CAPAN-1 cells; RTX-161 6 micro M + ola 1.11 micro M, experiment block 1 (c0-c9)
  percent suvival: 6.364%
CAPAN-1 cells; RTX-161 6 micro M + ola 1.11 micro M, experiment block 2 (c10-c19)
  percent suvival: 17.1679%
CAPAN-1 cells; RTX-161 6 micro M + ola 1.11 micro M, experiment block 3 (c20-c29)
  percent suvival: 14.1224%
CAPAN-1 cells; RTX-161 6 micro M, ola 0.00 micro M, experiment block 1 (c0-c9)
  percent suvival: 109.215%
CAPAN-1 cells; RTX-161 6 micro M, ola 0.00 micro M, experiment block 2 (c10-c19)
  percent suvival: 55.8784%
CAPAN-1 cells; RTX-161 6 micro M, ola 0.00 micro M, experiment block 3 (c20-c29)
  percent suvival: 75.1407%
CAPAN-1 cells; RTX-161 18 micro M + ola 0.041 micro M, experiment block 1 (c0-c9)
  percent suvival: 10.9588%
CAPAN-1 cells; RTX-161 18 micro M + ola 0.123 micro M, experiment block 1 (c0-c9)
  percent suvival: 6.3155%
CAPAN-1 cells; RTX-161 18 micro M + ola 0.37 micro M, experiment block 1 (c0-c9)
  percent suvival: 7.064%
CAPAN-1 cells; RTX-161 18 micro M + ola 1.11 micro M, experiment block 1 (c0-c9)
  percent suvival: 6.846%
CAPAN-1 cells; RTX-161 18 micro M, ola 0.00 micro M, experiment block 1 (c0-c9)
  percent suvival: 83.7737%
CAPAN-1 cells; clonogenic survival
  combination with Olaparib: significantly reduced cellular resistance to Olaparib
MDA-MB-231 cells; Rtx-161 5 microM + Talazoparib 12.5 nano M, experiment block 1 (c0-c7)
  percent suvival: 68.1979%
MDA-MB-231 cells; Rtx-161 5 microM + Talazoparib 12.5 nano M, experiment block 2 (c8-c15)
  percent suvival: 63.9241%
MDA-MB-231 cells; Rtx-161 5 microM + Talazoparib 12.5 nano M, experiment block 3 (c16-c23)
  percent suvival: 59.2391%
MDA-MB-231 cells; Rtx-161 5 microM + Talazoparib 25 nano M, experiment block 1 (c0-c7)
  percent suvival: 45.2297%
MDA-MB-231 cells; Rtx-161 5 microM + Talazoparib 25 nano M, experiment block 2 (c8-c15)
  percent suvival: 50%
MDA-MB-231 cells; Rtx-161 5 microM + Talazoparib 25 nano M, experiment block 3 (c16-c23)
  percent suvival: 34.2391%
MDA-MB-231 cells; Rtx-161 5 microM + Talazoparib 50 nano M, experiment block 1 (c0-c7)
  percent suvival: 12.7208%
MDA-MB-231 cells; Rtx-161 5 microM + Talazoparib 50 nano M, experiment block 2 (c8-c15)
  percent suvival: 18.9873%
MDA-MB-231 cells; Rtx-161 5 microM + Talazoparib 50 nano M, experiment block 3 (c16-c23)
  percent suvival: 15.7609%
MDA-MB-231 cells; Rtx-161 5 microM, Talazoparib 0 nano M, experiment block 1 (c0-c7)
  percent suvival: 93.6396%
MDA-MB-231 cells; Rtx-161 5 microM, Talazoparib 0 nano M, experiment block 2 (c8-c15)
  percent suvival: 98.7342%
MDA-MB-231 cells; Rtx-161 5 microM, Talazoparib 0 nano M, experiment block 3 (c16-c23)
  percent suvival: 88.587%
MDA-MB-231 cells; clonogenic survival, HR-proficient cells
  combination with Talazoparib: modestly potentiated the effects of Talazoparib
[1]
  combination with Olaparib: strongly potentiated the effects of Olaparib
  single agent activity: little to no activity as a single agent
EUFA1341 PALB2 mut cells
  survival of PALB2-mutant EUFA1341 cells: significant reduction in the survival
EUFA1341 PALB2 mut cells; EUFA1341 cells, label beside PALB2-mut curve, read-out: IC50 clonogenic survival
  IC50: ~5 µM
EUFA1341 PALB2 mut cells; RTX-161 2.5 micro M, per experiment
  Normalized (0 micro M = 100): 67.9566% and 76.5823% and 64.8427%
EUFA1341 PALB2 mut cells; RTX-161 5 micro M, per experiment
  Normalized (0 micro M = 100): 50.4887% and 55.1827% and 45.6779%
EUFA1341 PALB2 mut cells; RTX-161 10 micro M, per experiment
  Average (raw signal of wells): 0.37 and 0.6469 and 0.6018
HCT116 Parental cells; HCT116, colony survival
  effect in BRCA2-WT cells: little to no effect
HCT116 Parental cells; RTX-161 0.5 micro M
  Normalized colonies, pooled Average of 3 experiments: 101.74%
  Average number of colonies counted: 118 and 67.6667 and 68.6667
  Normalized colonies (% normalized to control): 99.7183% and 107.407% and 98.0952%
HCT116 Parental cells; RTX-161 1 micro M
  Normalized colonies, pooled Average of 3 experiments: 98.8027%
  Average number of colonies counted: 114.333 and 64.6667 and 68
  Normalized colonies (% normalized to control): 96.6197% and 102.646% and 97.1429%
HCT116 Parental cells; RTX-161 2 micro M
  Normalized colonies, pooled Average of 3 experiments: 97.4337%
  Average number of colonies counted: 112.667 and 59.6667 and 71.6667
  Normalized colonies (% normalized to control): 95.2113% and 94.709% and 102.381%
HCT116 Parental cells; RTX-161 4 micro M
  Normalized colonies, pooled Average of 3 experiments: 97.4186%
  Average number of colonies counted: 107.667 and 62 and 72
  Normalized colonies (% normalized to control): 90.9859% and 98.4127% and 102.857%
HCT116 Parental cells; RTX-161 8 micro M
  Normalized colonies, pooled Average of 3 experiments: 96.7852%
  Average number of colonies counted: 104.667 and 63 and 71.3333
  Normalized colonies (% normalized to control): 88.4507% and 100% and 101.905%
[2]
  activity against PALB2 complemented EUFA1341 cells: little to no activity
[2]; RTX-161 2.5 micro M
  Average (raw signal of wells): 1.026 and 0.9713 and 0.6573
  Normalized (0 micro M = 100): 116.435% and 111.613% and 105.551%
  average - blank: 0.8256 and 0.7713 and 0.5073
[2]; RTX-161 5 micro M
  Average (raw signal of wells): 1.035 and 0.9992
  Normalized (0 micro M = 100): 117.788% and 115.651% and 105.551%
  average - blank: 0.8352 and 0.7992 and 0.5073
[2]; RTX-161 10 micro M
  Average (raw signal of wells): 0.6121 and 1.137 and 1.058
  Normalized (0 micro M = 100): 96.1382% and 132.128% and 124.139%
VC8 cells; RTX-161 1 micro M + ola 30.00 nano M
  percent suvival: 0%
VC8 cells; RTX-161 1 micro M, ola 0.00 nano M
  percent suvival: 79.4521% and 92.4444% and 101.498%
VC8 cells; RTX-161 3 micro M + ola 30.00 nano M
  percent suvival: 0%
VC8 cells; RTX-161 3 micro M, ola 0.00 nano M
  percent suvival: 62.3288% and 70.2222% and 85.0187%
VC8 cells; clonogenic survival
  combination with Olaparib: significantly reduced cellular resistance to Olaparib
